Reference: patent US20080200533A1, “Drug or Pharmaceutical Compounds and a Preparation Thereof” (priority 2005, published 2008)
Read-outs that look alike come from different tables or passages of the source. One block for each compound: values may come before it.

Experiments:
[1] = oral; cited from earlier work
[2] = Experimental: 1 gram mole equivalent of (S)-2,6-diaminohexanoic acid is added to the above ethyl acetate solution and stirred at ambient room temperature.
[3] = cited from earlier work
CYP3A4 = settings: cited from earlier work

SMILES: CC(C)c1c(C(=O)Nc2ccccc2)c(-c2ccccc2)c(-c2ccc(F)cc2)n1CC[C@@H](O)C[C@@H](O)CC(=O)O (relative stereo) [atorvastatin, [R—(R*,R*)]-2-(4-fluorophenyl)-β,δ-dihydroxy-5-((1-methylethyl)-3-phenyl-4-[(phenylamino)-carbonyl]-1H-pyrrole-1-heptanoic acid]
orally administered drug absorbed from the intestine [1]: about 30%

solubility in water (in words) [2]: water insoluble
SMILES: CC(C)c1nc(N(C)S(C)(=O)=O)nc(-c2ccc(F)cc2)c1/C=C/[C@@H](O)C[C@@H](O)CC(=O)O [Rosuvastatin acid]

SMILES: CC[C@H](CC[C@@H](C)[C@H]1CC[C@H]2[C@@H]3CC=C4C[C@@H](O)CC[C@]4(C)[C@H]3CC[C@]12C)C(C)C [beta sitosterol]
beta sitosterol soluble in triolein oil ([3]; linked as an ester to decanoic acid): 1.1%
beta sitosterol soluble in triolein oil ([3]; linked as an ester to lauric acid): 0.6%
beta sitosterol soluble in triolein oil ([3]; linked as an ester to palmitic acid): 0.1%

SMILES: CC(C)c1c(C(=O)Nc2ccccc2)c(-c2ccccc2)c(-c2ccc(F)cc2)n1CC[C@@H]1C[C@@H](O)CC(=O)O1 [atorvastatin lactone]
affinity to CYP3A4 compared with the acid (CYP3A4): significantly higher affinity
CYP-dependent metabolism to ortho-hydroxy metabolite, compared with atorvastatin acid (CYP3A4; human liver microsomes): 20 fold
CYP-dependent metabolism to para-hydroxy metabolite, compared with atorvastatin acid (CYP3A4; human liver microsomes): 83 fold
